We go through three compounds from paper PMC11406233 (Proceedings of the National Academy of Sciences of the …, 2024).

Like-named read-outs stand apart in the source and are kept apart here. Some results are limits rather than exact numbers.

In general, EC50 refers to the concentration that produces a half-maximal response.

Assay [1] concerns rgSCoV2WT. As to the kind of experiment: microbe, parasite or virus in culture. Format: cell-based. To be noted: Severe acute respiratory syndrome coronavirus 2, VeroE6/TMPRSS2, read-out: EC50±SD.
Assay [2] deals with rgSCoV2E166V. The format is cell-based, SARS-CoV-2.
In assay [3] the test system is SCoV2^WK521A191T. Further details: species or system SARS-CoV-2. To be noted: read-out: EC50 from cell-based assay.
Assay [4] has as its system rgSCoV2L50F/E166V. Format: cell-based, SARS-CoV-2.
Assay [5] deals with SCoV2^WK521A191T. Further details: species or system SARS-CoV-2. To be noted: read-out: EC50 from cell-based assay. The source holds these as a separate data set.
For assay [6], the system named is SCoV2^WK521WT + SCoV2^WK521A191T. Format: cell-based, SARS-CoV-2.
In assay [7] the target is T1, M^proE166V (Severe acute respiratory syndrome coronavirus 2, UniProt P0DTD1, E3429V). Format: biochemical, SARS-CoV-2.
For assay [8], the system named is SCoV2^WK521E166V. Format: cell-based, SARS-CoV-2.
In assay [9] the test system is SCoV2^WK521WT + SCoV2^WK521E166V. Format: cell-based, SARS-CoV-2.
Assay [10] concerns the target T1, M^proE166V. The format is binding, SARS-CoV-2.

In the case of `COc1cccc2[nH]c(C(=O)N[C@@H](CC(C)C)C(=O)N[C@@H](C[C@@H]3CCNC3=O)C(=O)c3nc4ccccc4s3)cc12` [5h], the EC50 is 13.5 µM in [1]; 13.5 ± 0.15 µM in assay [2]; 35 ± 0.08 µM in assay [3]; 13.4 ± 0.48 µM in assay [4]; over 100 µM in [5]. In addition, the “Pattern of replicability in CSRA” value in [6] is on record as “SCoV2^WK521A191T predominated SCoV2^WK521 throughout all the concentrations tested”.
Turning to `CC(C)(C)[C@H](NC(=O)C(F)(F)F)C(=O)N1C[C@H]2[C@@H]([C@H]1C(=O)N[C@H](C#N)C[C@@H]1CCNC1=O)C2(C)C` [nirmatrelvir, reference compound], the EC50 in assay [1] was determined as 4.4 µM.
Regarding `CC(C)(C)[C@H](NC(=O)C(F)(F)F)C(=O)N1C[C@H]2[C@@H]([C@H]1C(=O)N[C@@H](C[C@@H]1CCNC1=O)C(=O)c1nc3c(F)cccc3s1)C2(C)C` [TKB245], the 50% effective concentration (EC50) in assay [1] worked out at 0.78 µM; in assay [2], 6.6 µM; in assay [4] it was 11.4 µM. In addition, the “Factor of greater binding affinity to MproE166V than nirmatrelvir” value in [7] is 6.8. Besides, the “Difference in the EC50 values of NIR and TKB245” value in [8] is given as 207 fold. The “SCoV2^WK521E166V population” value in assay [9] was found to be 100%. Further, the “SCoV2^WK521WT population” value in assay [9] is on record as 100%. Besides, in assay [10], the “Complex formation with MproE166V in crystallization” value is given as “TKB245 binds to M^proE166V”.
